The text below walks through data of US11896591B2, “Compositions and methods for preparing and using mitochondrial uncouplers” (UNIVERSITY OF VIRGINIA PATENT FOUNDATION, priority 2017, dated 2024).

Bounds are passed on as bounds.

A word on the EC50: it is the midpoint of the concentration-response curve. Higher therefore signals a less potent agent.

For the test, the system named is whole cells. Put plainly: Oxygen consumption rate (OCR) in whole cells, Seahorse XF-24 Flux Analyzer. In kind it is cell-based. As to conditions: binned EC50 values; increase in oxygen consumption rate in whole cells. On the procedure:
Biological activities of the compounds synthesized is determined by determining increase in oxygen consumption rate (OCR).
OCR is measured using a Seahorse XF-24 Flux Analyzer (Seahorse Biosciences, North Billerica, MA). NMuLi, C2C12, and L6 cells are seeded in a Seahorse 24-well tissue culture plate at a density of 3.5×10^4 cells/well, isolated cardiomyocytes at a density of 4×10^4 cells/well, and human primary fibroblasts at a density of 1.1×10^4 cells/well. The cells are then allowed to adhere for 24 h. […] Compounds are injected during the assay and OCR is measured using 2 min measurement periods.
2-3 wells are used per condition and averaged over three plates (n=6-9). Statistical significance is determined by two-way ANOVA with Bonferroni's posttest.

Regarding `Cc1ccccc1Nc1nc2nonc2nc1Nc1ccccc1C` [Compound 3a, N^5,N^6-di-o-tolyl-[1,2,5]oxadiazolo[3,4-b]pyrazine-5,6-diamine], the EC50 was more than 20 µM.

In the case of `Fc1c(Nc2nc3nonc3nc2Nc2cccc(C(F)(F)F)c2F)cccc1C(F)(F)F` [Compound 3aa, N^5,N^6-bis(2-fluoro-3-(trifluoromethyl)phenyl)-[1,2,5]oxadiazolo[3,4-b]pyrazine-5,6-diamine], the EC50 was less than 5 µM. The result for `Cc1cccc(Nc2nc3nonc3nc2Nc2cccc(C)c2)c1` [Compound 3b, N^5,N^6-di-m-tolyl-[1,2,5]oxadiazolo[3,4-b]pyrazine-5,6-diamine] reads less than 5 µM. For the compound `Fc1cc(Nc2nc3nonc3nc2Nc2ccc(OC(F)(F)F)c(F)c2)ccc1OC(F)(F)F` [Compound 3bb, N^5,N^6-bis(3-fluoro-4-(trifluoromethoxy)phenyl)-[1,2,5]oxadiazolo[3,4-b]pyrazine-5,6-diamine], the concentration for a half-maximal effect (EC50) is less than 5 µM.

Take `Cc1ccc(Nc2nc3nonc3nc2Nc2ccc(C)cc2)cc1` [Compound 3c, N^5,N^6-di-p-tolyl-[1,2,5]oxadiazolo[3,4-b]pyrazine-5,6-diamine]: the EC50 lay within 5 to 20 µM. In the case of `Fc1cc(F)cc(Nc2nc3nonc3nc2Nc2cc(F)cc(F)c2)c1` [Compound 3cc, N^5,N^6-bis(3,5-difluorophenyl)-[1,2,5]oxadiazolo[3,4-b]pyrazine-5,6-diamine] it was less than 5 µM.

The compound `COc1cccc(Nc2nc3nonc3nc2Nc2cccc(OC)c2)c1` [Compound 3e, N^5,N^6-bis(3-methoxyphenyl)-[1,2,5]oxadiazolo[3,4-b]pyrazine-5,6-diamine] registered an EC50 of more than 20 µM. In the case of `c1ccc(Nc2nc3nonc3nc2Nc2ccccc2)cc1` [Compound 3ee, N^5,N^6-diphenyl-[1,2,5]oxadiazolo[3,4-b]pyrazine-5,6-diamine] it was less than 5 µM; in that of `CCOc1cccc(Nc2nc3nonc3nc2Nc2cccc(OCC)c2)c1` [Compound 3h, N^5,N^6-bis(3-ethoxyphenyl)-[1,2,5]oxadiazolo[3,4-b]pyrazine-5,6-diamine], 5 to 20 µM. `FC(F)(F)Oc1ccccc1Nc1nc2nonc2nc1Nc1ccccc1OC(F)(F)F` [Compound 3k, N^5,N^6-bis(2-(trifluoromethoxy)phenyl)-[1,2,5]oxadiazolo[3,4-b]pyrazine-5,6-diamine] returned an EC50 of less than 5 µM.

For the compound `FC(F)(F)Oc1cccc(Nc2nc3nonc3nc2Nc2cccc(OC(F)(F)F)c2)c1` [Compound 3l, N^5,N^6-bis(3-(trifluoromethoxy)phenyl)-[1,2,5]oxadiazolo[3,4-b]pyrazine-5,6-diamine], the EC50 was less than 5 µM. The result for `Fc1cccc(Nc2nc3nonc3nc2Nc2cccc(F)c2)c1` [Compound 3n, N^5,N^6-bis(3-fluorophenyl)-[1,2,5]oxadiazolo[3,4-b]pyrazine-5,6-diamine] reads less than 5 µM; that for `FC(F)(F)c1ccccc1Nc1nc2nonc2nc1Nc1ccccc1C(F)(F)F` [Compound 3q, N^5,N^6-bis(2-(trifluoromethyl)phenyl)-[1,2,5]oxadiazolo[3,4-b]pyrazine-5,6-diamine], less than 5 µM. The result for `FC(F)(F)c1cccc(Nc2nc3nonc3nc2Nc2cccc(C(F)(F)F)c2)c1` [Compound 3r, N^5,N^6-bis(3-(trifluoromethyl)phenyl)-[1,2,5]oxadiazolo[3,4-b]pyrazine-5,6-diamine] reads less than 5 µM. The result for `FC(F)(F)c1ccc(Nc2nc3nonc3nc2Nc2ccc(C(F)(F)F)cc2)cc1` [Compound 3s, N^5,N^6-bis(4-(trifluoromethyl)phenyl)-[1,2,5]oxadiazolo[3,4-b]pyrazine-5,6-diamine] reads less than 5 µM; that for `COC(=O)c1ccc(Nc2nc3nonc3nc2Nc2ccc(C(=O)OC)cc2)cc1` [Compound 3t, Dimethyl 4,4′-([1,2,5]oxadiazolo[3,4-b]pyrazine-5,6-diylbis(azanediyl))dibenzoate], less than 5 µM.

In turn, `Fc1cc(C(F)(F)F)ccc1Nc1nc2nonc2nc1Nc1ccc(C(F)(F)F)cc1F` [Compound 3w, N^5,N^6-bis(2-fluoro-4-(trifluoromethyl)phenyl)-[1,2,5]oxadiazolo[3,4-b]pyrazine-5,6-diamine] had an EC50 of less than 5 µM. In the case of `Fc1cc(Nc2nc3nonc3nc2Nc2ccc(C(F)(F)F)c(F)c2)ccc1C(F)(F)F` [Compound 3x, N^5,N^6-bis(3-fluoro-4-(trifluoromethyl)phenyl)-[1,2,5]oxadiazolo[3,4-b]pyrazine-5,6-diamine] it was less than 5 µM; in that of `Fc1ccc(C(F)(F)F)cc1Nc1nc2nonc2nc1Nc1cc(C(F)(F)F)ccc1F` [Compound 3y, N^5,N^6-bis(2-fluoro-5-(trifluoromethyl)phenyl)-[1,2,5]oxadiazolo[3,4-b]pyrazine-5,6-diamine], less than 5 µM; in that of `FC(F)(F)c1cc(Nc2nc3nonc3nc2Nc2cc(C(F)(F)F)cc(C(F)(F)F)c2)cc(C(F)(F)F)c1` [Compound 3z, N^5,N^6-bis(3,5-bis(trifluoromethyl)phenyl)-[1,2,5]oxadiazolo[3,4-b]pyrazine-5,6-diamine], more than 20 µM. In the case of `Fc1ccccc1Nc1nc2nonc2nc1Nc1ccccc1` [Compound 4a, N^5-(2-fluorophenyl)-N^6-phenyl-[1,2,5]oxadiazolo[3,4-b]pyrazine-5,6-diamine] it was less than 5 µM; in that of `Fc1ccccc1Nc1nc2nonc2nc1Nc1cc(C(F)(F)F)cc(C(F)(F)F)c1` [Compound 4aa, N^5-(3,5-bis(trifluoromethyl)phenyl)-N^6-(2-fluorophenyl)-[1,2,5]oxadiazolo[3,4-b]pyrazine-5,6-diamine], less than 5 µM; in that of `Fc1ccccc1Nc1nc2nonc2nc1Nc1ccccn1` [Compound 4b, N^5-(2-fluorophenyl)-N^6-(pyridin-2-yl)-[1,2,5]oxadiazolo[3,4-b]pyrazine-5,6-diamine], more than 20 µM. The compound `Fc1ccccc1Nc1nc2nonc2nc1Nc1cccc(C(F)(F)F)c1F` [Compound 4bb, N^5-(2-fluoro-3-(trifluoromethyl)phenyl)-N^6-(2-fluorophenyl)-[1,2,5]oxadiazolo[3,4-b]pyrazine-5,6-diamine] gave a concentration for a half-maximal effect (EC50) of less than 5 µM. The result for `Fc1ccc(Nc2nc3nonc3nc2Nc2ccccc2F)cc1` [Compound 4d, N^5-(2-fluorophenyl)-N^6-(4-fluorophenyl)-[1,2,5]oxadiazolo[3,4-b]pyrazine-5,6-diamine] reads less than 5 µM. In the case of `Fc1ccccc1Nc1nc2nonc2nc1Nc1cccc(F)c1F` [Compound 4e, N^5-(2,3-difluorophenyl)-N^6-(2-fluorophenyl)-[1,2,5]oxadiazolo[3,4-b]pyrazine-5,6-diamine] it was less than 5 µM. In the case of `Fc1ccc(Nc2nc3nonc3nc2Nc2ccccc2F)c(F)c1` [Compound 4f, N^5-(2,4-difluorophenyl)-N^6-(2-fluorophenyl)-[1,2,5]oxadiazolo[3,4-b]pyrazine-5,6-diamine] it was less than 5 µM.

With `Cc1cccc(Nc2nc3nonc3nc2Nc2ccccc2F)c1` [Compound 4h, N^5-(2-fluorophenyl)-N^6-(m-tolyl)-[1,2,5]oxadiazolo[3,4-b]pyrazine-5,6-diamine], the EC50 is less than 5 µM. In the case of `Cc1ccc(Nc2nc3nonc3nc2Nc2ccccc2F)cc1` [Compound 4i, N^5-(2-fluorophenyl)-N^6-(p-tolyl)-[1,2,5]oxadiazolo[3,4-b]pyrazine-5,6-diamine], the EC50 fell in the range of 5 to 20 µM. For the compound `COc1cccc(Nc2nc3nonc3nc2Nc2ccccc2F)c1` [Compound 4k, N^5-(2-fluorophenyl)-N^6-(3-methoxyphenyl)-[1,2,5]oxadiazolo[3,4-b]pyrazine-5,6-diamine], the EC50 is less than 5 µM. In the case of `COc1ccc(Nc2nc3nonc3nc2Nc2ccccc2F)cc1` [Compound 4l, N^5-(2-fluorophenyl)-N^6-(4-methoxyphenyl)-[1,2,5]oxadiazolo[3,4-b]pyrazine-5,6-diamine] it was less than 5 µM; in that of `CCOc1cccc(Nc2nc3nonc3nc2Nc2ccccc2F)c1` [Compound 4n, N^5-(3-ethoxyphenyl)-N^6-(2-fluorophenyl)-[1,2,5]oxadiazolo[3,4-b]pyrazine-5,6-diamine], less than 5 µM. The result for `CCOc1ccc(Nc2nc3nonc3nc2Nc2ccccc2F)cc1` [Compound 4o, N^5-(4-ethoxyphenyl)-N^6-(2-fluorophenyl)-[1,2,5]oxadiazolo[3,4-b]pyrazine-5,6-diamine] reads less than 5 µM. In the case of `Fc1ccccc1Nc1nc2nonc2nc1Nc1ccccc1OC(F)(F)F` [Compound 4q, N^5-(2-fluorophenyl)-N^6-(2-(trifluoromethoxy)phenyl)-[1,2,5]oxadiazolo[3,4-b]pyrazine-5,6-diamine], the concentration for a half-maximal effect (EC50) was less than 5 µM. Compound `Fc1ccccc1Nc1nc2nonc2nc1Nc1cccc(OC(F)(F)F)c1` [Compound 4r, N^5-(2-fluorophenyl)-N^6-(3-(trifluoromethoxy)phenyl)-[1,2,5]oxadiazolo[3,4-b]pyrazine-5,6-diamine] displayed an EC50 of 5 to 20 µM.

In turn, `Fc1ccccc1Nc1nc2nonc2nc1Nc1ccc(OC(F)(F)F)cc1` [Compound 4s, N^5-(2-fluorophenyl)-N^6-(4-(trifluoromethoxy)phenyl)-[1,2,5]oxadiazolo[3,4-b]pyrazine-5,6-diamine] showed an EC50 of less than 5 µM. On to `O=C(Nc1ccc(Nc2nc3nonc3nc2Nc2ccccc2F)cc1)C(F)(F)F` [Compound 4t, 2,2,2-Trifluoro-N-(4-((6-((2-fluorophenyl)amino)-[1,2,5]oxadiazolo[3,4-b]pyrazin-5-yl)amino)phenyl)acetamide], for which the EC50 was less than 5 µM.

As for `Fc1ccccc1Nc1nc2nonc2nc1Nc1ccccc1C(F)(F)F` [Compound 4u, N^5-(2-fluorophenyl)-N^6-(2-(trifluoromethyl)phenyl)-[1,2,5]oxadiazolo[3,4-b]pyrazine-5,6-diamine], the EC50 is less than 5 µM.
